In the NIST ThermoML archive (doi:10.1021/acs.jced.7b00321):

Test: xn = mol fraction of the nth substance listed
Conditions: 101 kPa, Liquid; for viscosity: Capillary tube (Ostwald / Ubbelohde) method; for mass density: Vibrating tube method

CC(O)CN (centres undefined) [1-amino-2-propanol] + CCO
Conditions | mass density, 293.15 K [kg/m3] | mass density, 303.15 K [kg/m3] | mass density, 313.15 K [kg/m3] | mass density, 323.15 K [kg/m3] | viscosity, 293.15 K [mPa·s] | viscosity, 303.15 K [mPa·s] | viscosity, 313.15 K [mPa·s] | viscosity, 323.15 K [mPa·s]
x1 = 0.1009 | 815.54 | 807.78 | 798.04 | 790.57 | 1.69 | 1.35 | 1.1 | 0.9
x1 = 0.2 | 839.35 | 830.91 | 821.03 | 813.16 | 2.38 | 1.83 | 1.45 | 1.16
x1 = 0.3015 | 860.99 | 852.05 | 842.37 | 834.09 | 3.39 | 2.51 | 1.91 | 1.49
x1 = 0.3999 | 879.64 | 870.63 | 860.91 | 852.56 | 4.74 | 3.38 | 2.49 | 1.89
x1 = 0.4999 | 896.77 | 887.58 | 878.08 | 869.65 | 6.61 | 4.53 | 3.23 | 2.39
x1 = 0.5992 | 912.21 | 903.08 | 893.58 | 885.11 | 9.15 | 6.04 | 4.17 | 3.01
x1 = 0.6996 | 926.22 | 917.08 | 907.84 | 899.63 | 12.64 | 8.01 | 5.35 | 3.76
x1 = 0.7998 | 938.83 | 929.86 | 921.21 | 912.9 | 17.3 | 10.53 | 6.84 | 4.7
x1 = 0.8995 | 950.36 | 941.55 | 933.29 | 924.97 | 23.42 | 13.8 | 8.64 | 5.75

NCCCO [3-amino-1-propanol] + CCO
Conditions | mass density, 293.15 K [kg/m3] | mass density, 303.15 K [kg/m3] | mass density, 313.15 K [kg/m3] | mass density, 323.15 K [kg/m3] | viscosity, 293.15 K [mPa·s] | viscosity, 303.15 K [mPa·s] | viscosity, 313.15 K [mPa·s] | viscosity, 323.15 K [mPa·s]
x1 = 0.101 | 820.04 | 812.33 | 802.78 | 795.11 | 1.77 | 1.41 | 1.18 | 0.97
x1 = 0.2008 | 847.98 | 839.91 | 830.23 | 822.21 | 2.7 | 2.05 | 1.63 | 1.32
x1 = 0.3001 | 871.99 | 863.77 | 854.17 | 846.08 | 4.06 | 2.97 | 2.29 | 1.79
x1 = 0.4006 | 894.28 | 885.95 | 876.32 | 867.97 | 6.22 | 4.43 | 3.25 | 2.49
x1 = 0.4999 | 914.13 | 905.74 | 896.28 | 887.91 | 9.34 | 6.31 | 4.53 | 3.33
x1 = 0.5994 | 932.46 | 923.63 | 914.45 | 906.05 | 13.88 | 8.89 | 6.17 | 4.35
x1 = 0.6993 | 948.72 | 940.08 | 931.32 | 922.79 | 19.55 | 12.09 | 8.08 | 5.52
x1 = 0.7999 | 963.35 | 954.73 | 946.49 | 938.29 | 26.29 | 15.91 | 10.18 | 6.82
x1 = 0.8998 | 975.98 | 967.76 | 959.83 | 951.35 | 32.9 | 19.96 | 12.86 | 8.29
